Data published in PubChem BioAssay AID1963420 (Molecular Pharmacology Branch, DTP, NCI, 2024).
Each block holds one compound with its values, some of them ahead of it.

Tested on: 494315-158-R-J1-PDC complex spheroid growth, percent test/control
Assay: Anticancer human tumor 494315-158-R-J1-PDC patient-derived soft tissue sarcoma cell line growth inhibition [Asc]
Details: for IC50: curve of first compound; for viability, T/C: stronger effect = lower value
Method in brief: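 Concentration series start at each agent's clinical Cmax, or at 10 microM when none is established, and drop in half-log steps; agents are applied alone or together to complex spheroids built with HUVEC and hMSC.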

[1] = second compound 0.01 µM, first compound 0.00949 µM
[2] = second compound 0.01 µM, first compound 0.03 µM
[3] = second compound 0.01 µM, first compound 0.0949 µM
[4] = second compound 0.01 µM, first compound 0.3 µM
[5] = second compound 0.01 µM, first compound 0.949 µM
[6] = second compound 0.01 µM, first compound 3 µM
[7] = second compound 0.0316 µM, first compound 0.00949 µM
[8] = second compound 0.0316 µM, first compound 0.03 µM
[9] = second compound 0.0316 µM, first compound 0.0949 µM
[10] = second compound 0.0316 µM, first compound 0.3 µM
[11] = second compound 0.0316 µM, first compound 0.949 µM
[12] = second compound 0.0316 µM, first compound 3 µM
[13] = second compound 0.1 µM, first compound 0.00949 µM
[14] = second compound 0.1 µM, first compound 0.03 µM
[15] = second compound 0.1 µM, first compound 0.0949 µM
[16] = second compound 0.1 µM, first compound 0.3 µM
[17] = second compound 0.1 µM, first compound 0.949 µM
[18] = second compound 0.1 µM, first compound 3 µM
[19] = second compound 0.316 µM, first compound 0.00949 µM
[20] = second compound 0.316 µM, first compound 0.03 µM
[21] = second compound 0.316 µM, first compound 0.0949 µM
[22] = second compound 0.316 µM, first compound 0.3 µM
[23] = second compound 0.316 µM, first compound 0.949 µM
[24] = second compound 0.316 µM, first compound 3 µM
[25] = second compound 1 µM, first compound 0.00949 µM
[26] = second compound 1 µM, first compound 0.03 µM
[27] = second compound 1 µM, first compound 0.0949 µM
[28] = second compound 1 µM, first compound 0.3 µM
[29] = second compound 1 µM, first compound 0.949 µM
[30] = second compound 1 µM, first compound 3 µM
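Note: compound exposure lasted seven days after spheroids formed for three days.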

IC50 (second compound 0.01 µM): > 10000 nM | IC50 (second compound 0.0316 µM): > 10000 nM | IC50 (second compound 0.1 µM): > 10000 nM | IC50 (second compound 0.316 µM): < 31.6 nM | IC50 (second compound 1 µM): < 31.6 nM
Compound: C=CC(=O)N1CCN(c2nc(=O)n(-c3c(C)ccnc3C(C)C)c3nc(-c4c(O)cccc4F)c(F)cc23)C(C)C1 (stereo not given) + CNC(C)C(=O)NC1CN(S(=O)(=O)c2cccc(S(=O)(=O)N3CCC4CCC(C(=O)NC(c5ccccc5)c5ccccc5)N4C(=O)C(NC(=O)C(C)NC)C3)c2)CCC2CCC(C(=O)NC(c3ccccc3)c3ccccc3)N2C1=O
viability, T/C (second compound 0.01 µM, first compound 0.0316 µM): 72.5% | viability, T/C (second compound 0.01 µM, first compound 0.1 µM): 70.5% | viability, T/C (second compound 0.01 µM, first compound 0.316 µM): 74.1% | viability, T/C (second compound 0.01 µM, first compound 1 µM): 69.5% | viability, T/C (second compound 0.01 µM, first compound 3.16 µM): 78.4% | viability, T/C (second compound 0.01 µM, first compound 10 µM): 57.8% | viability, T/C (second compound 0.0316 µM, first compound 0.0316 µM): 58.2% | viability, T/C (second compound 0.0316 µM, first compound 0.1 µM): 60.8% | viability, T/C (second compound 0.0316 µM, first compound 0.316 µM): 57.6% | viability, T/C (second compound 0.0316 µM, first compound 1 µM): 73.5% | viability, T/C (second compound 0.0316 µM, first compound 3.16 µM): 59.5% | viability, T/C (second compound 0.0316 µM, first compound 10 µM): 45.2% | viability, T/C (second compound 0.1 µM, first compound 0.0316 µM): 53.2% | viability, T/C (second compound 0.1 µM, first compound 0.1 µM): 54% | viability, T/C (second compound 0.1 µM, first compound 0.316 µM): 62.1% | viability, T/C (second compound 0.1 µM, first compound 1 µM): 55.4% | viability, T/C (second compound 0.1 µM, first compound 3.16 µM): 60.3% | viability, T/C (second compound 0.1 µM, first compound 10 µM): 42.5% | viability, T/C (second compound 0.316 µM, first compound 0.0316 µM): 49% | viability, T/C (second compound 0.316 µM, first compound 0.1 µM): 50.1% | viability, T/C (second compound 0.316 µM, first compound 0.316 µM): 46.2% | viability, T/C (second compound 0.316 µM, first compound 1 µM): 45.8% | viability, T/C (second compound 0.316 µM, first compound 3.16 µM): 51.5% | viability, T/C (second compound 0.316 µM, first compound 10 µM): 42.2% | viability, T/C (second compound 1 µM, first compound 0.0316 µM): 45.2% | viability, T/C (second compound 1 µM, first compound 0.1 µM): 49.7% | viability, T/C (second compound 1 µM, first compound 0.316 µM): 44.9% | viability, T/C (second compound 1 µM, first compound 1 µM): 35.3% | viability, T/C (second compound 1 µM, first compound 3.16 µM): 38.8% | viability, T/C (second compound 1 µM, first compound 10 µM): 40.9%

IC50 (second compound 0.01 µM): > 3000 nM | IC50 (second compound 0.0316 µM): > 3000 nM | IC50 (second compound 0.1 µM): 539 nM | IC50 (second compound 0.316 µM): 44.6 nM | IC50 (second compound 1 µM): < 9.49 nM
Compound: CCN1C(C(=O)NC23CCC(C(=O)O)(CC2)CC3)C(c2cccc(Cl)c2F)C2(C(=O)Nc3cc(Cl)ccc32)C12CCCCC2 (stereo not given) + CNC(C)C(=O)NC1CN(S(=O)(=O)c2cccc(S(=O)(=O)N3CCC4CCC(C(=O)NC(c5ccccc5)c5ccccc5)N4C(=O)C(NC(=O)C(C)NC)C3)c2)CCC2CCC(C(=O)NC(c3ccccc3)c3ccccc3)N2C1=O
viability, T/C [1]: 66.2% | viability, T/C [2]: 77.9% | viability, T/C [3]: 66.8% | viability, T/C [4]: 73.7% | viability, T/C [5]: 67.5% | viability, T/C [6]: 57.8% | viability, T/C [7]: 57.3% | viability, T/C [8]: 62.8% | viability, T/C [9]: 61.5% | viability, T/C [10]: 71% | viability, T/C [11]: 60.6% | viability, T/C [12]: 51.4% | viability, T/C [13]: 51.4% | viability, T/C [14]: 53.4% | viability, T/C [15]: 56.5% | viability, T/C [16]: 52% | viability, T/C [17]: 47.1% | viability, T/C [18]: 39.3% | viability, T/C [19]: 53.9% | viability, T/C [20]: 55.3% | viability, T/C [21]: 49.8% | viability, T/C [22]: 39.5% | viability, T/C [23]: 41% | viability, T/C [24]: 45.4% | viability, T/C [25]: 39.6% | viability, T/C [26]: 45.6% | viability, T/C [27]: 44.5% | viability, T/C [28]: 38.7% | viability, T/C [29]: 35.7% | viability, T/C [30]: 33%

IC50 (second compound 0.01 µM): > 3000 nM | IC50 (second compound 0.0316 µM): > 3000 nM | IC50 (second compound 0.1 µM): 941 nM | IC50 (second compound 0.316 µM): < 9.49 nM | IC50 (second compound 1 µM): < 9.49 nM
Compound: Cc1nc(N2CCC3(CC2)COC(C)C3N)c(CO)nc1Sc1ccnc(N)c1Cl (stereo not given) + CNC(C)C(=O)NC1CN(S(=O)(=O)c2cccc(S(=O)(=O)N3CCC4CCC(C(=O)NC(c5ccccc5)c5ccccc5)N4C(=O)C(NC(=O)C(C)NC)C3)c2)CCC2CCC(C(=O)NC(c3ccccc3)c3ccccc3)N2C1=O
viability, T/C [1]: 72.2% | viability, T/C [2]: 59.6% | viability, T/C [3]: 64.1% | viability, T/C [4]: 60.8% | viability, T/C [5]: 62.7% | viability, T/C [6]: 52.1% | viability, T/C [7]: 60.7% | viability, T/C [8]: 69.7% | viability, T/C [9]: 64.3% | viability, T/C [10]: 55.6% | viability, T/C [11]: 60.8% | viability, T/C [12]: 51% | viability, T/C [13]: 59.7% | viability, T/C [14]: 55.6% | viability, T/C [15]: 50.6% | viability, T/C [16]: 49.1% | viability, T/C [17]: 59.1% | viability, T/C [18]: 43.7% | viability, T/C [19]: 48.3% | viability, T/C [20]: 48.6% | viability, T/C [21]: 47.2% | viability, T/C [22]: 37.1% | viability, T/C [23]: 42.8% | viability, T/C [24]: 49.5% | viability, T/C [25]: 38.7% | viability, T/C [26]: 44.2% | viability, T/C [27]: 44.3% | viability, T/C [28]: 36.8% | viability, T/C [29]: 40% | viability, T/C [30]: 39.2%
